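Each compound was tested at five concentrations against cells in 96-well plates for 48 hours. GI50 = concentration required for 50% inhibition of growth.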 Active and inactive are the calls of the source. Rule as the data show it: active = GI50 up to about 1.1 µM and inactive = higher.
Assays:
Assay in all cases: NCI anticancer screen, dose series, 48 h
786-0 = system: 786-0
A498 = system: A498
A549 = system: A549
ACHN = system: ACHN
BT-549 = system: BT-549
CAKI-1 = system: CAKI-1
CCRF-CEM = system: CCRF-CEM
COLO 205 = system: COLO 205
DU-145 = system: DU-145
EKVX = system: EKVX
HCC 2998 = system: HCC 2998
HCT-116 = system: HCT-116
HCT-15 = system: HCT-15
HL-60 = system: HL-60
HOP-62 = system: HOP-62
HOP-92 = system: HOP-92
HT-29 = system: HT-29
Hs-578T = system: Hs-578T
IGROV-1 = system: IGROV-1
K562 = system: K562
KM12 = system: KM12
LOX IMVI = system: LOX IMVI
M14 = system: M14
MCF7 = system: MCF7
MDA-MB-231 = system: MDA-MB-231
MDA-MB-435 = system: MDA-MB-435
MDA-N = system: MDA-N
MOLT-4 = system: MOLT-4
NCI-H226 = system: NCI-H226
NCI-H23 = system: NCI-H23
NCI-H460 = system: NCI-H460
NCI-H522 = system: NCI-H522
NCI/ADR-RES = system: NCI/ADR-RES
OVCAR-3 = system: OVCAR-3
OVCAR-4 = system: OVCAR-4
OVCAR-5 = system: OVCAR-5
OVCAR-8 = system: OVCAR-8
PC-3 = system: PC-3
RPMI-8226 = system: RPMI-8226
RXF 393 = system: RXF 393
SF-268 = system: SF-268
SF-295 = system: SF-295
SF-539 = system: SF-539
SK-MEL-28 = system: SK-MEL-28
SK-MEL-2 = system: SK-MEL-2
SK-MEL-5 = system: SK-MEL-5
SK-OV-3 = system: SK-OV-3
SN12C = system: SN12C
SNB-19 = system: SNB-19
SW-620 = system: SW-620
T47D = system: T47D
TK-10 = system: TK-10
U-251 = system: U-251
UACC-257 = system: UACC-257
UACC-62 = system: UACC-62
UO-31 = system: UO-31
Malme-3M = system: Malme-3M
SNB-75 = system: SNB-75

CC1=C(C(=O)NNC(=O)c2ccccc2)CC(C(=O)NNC(=O)c2ccccc2)=C(C)N1
GI50 (786-0): > 100 µM (inactive) | GI50 (A498): > 100 µM (inactive) | GI50 (A549): > 100 µM (inactive) | GI50 (ACHN): > 100 µM (inactive) | GI50 (BT-549): > 100 µM (inactive) | GI50 (CAKI-1): > 100 µM (inactive) | GI50 (CCRF-CEM): > 100 µM (inactive) | GI50 (COLO 205): > 100 µM (inactive) | GI50 (DU-145): > 100 µM (inactive) | GI50 (EKVX): > 100 µM (inactive) | GI50 (HCC 2998): > 100 µM (inactive) | GI50 (HCT-116): > 100 µM (inactive) | GI50 (HCT-15): > 100 µM | GI50 (HL-60): > 100 µM (inactive) | GI50 (HOP-62): > 100 µM (inactive) | GI50 (HOP-92): > 100 µM (inactive) | GI50 (HT-29): > 100 µM (inactive) | GI50 (Hs-578T): > 100 µM (inactive) | GI50 (IGROV-1): > 100 µM (inactive) | GI50 (K562): > 100 µM (inactive) | GI50 (KM12): > 100 µM (inactive) | GI50 (LOX IMVI): > 100 µM (inactive) | GI50 (M14): > 100 µM (inactive) | GI50 (MCF7): > 100 µM (inactive) | GI50 (MDA-MB-231): > 100 µM (inactive) | GI50 (MDA-MB-435): > 100 µM (inactive) | GI50 (MDA-N): > 100 µM (inactive) | GI50 (MOLT-4): > 100 µM (inactive) | GI50 (NCI-H226): > 100 µM (inactive) | GI50 (NCI-H23): > 100 µM (inactive) | GI50 (NCI-H460): 92.9 µM (inactive) | GI50 (NCI-H522): > 100 µM (inactive) | GI50 (NCI/ADR-RES): > 100 µM (inactive) | GI50 (OVCAR-3): > 100 µM (inactive) | GI50 (OVCAR-4): > 100 µM (inactive) | GI50 (OVCAR-5): > 100 µM (inactive) | GI50 (OVCAR-8): > 100 µM (inactive) | GI50 (PC-3): > 100 µM (inactive) | GI50 (RPMI-8226): > 100 µM (inactive) | GI50 (RXF 393): > 100 µM (inactive) | GI50 (SF-268): > 100 µM (inactive) | GI50 (SF-295): > 100 µM (inactive) | GI50 (SF-539): > 100 µM (inactive) | GI50 (SK-MEL-28): > 100 µM (inactive) | GI50 (SK-MEL-2): > 100 µM (inactive) | GI50 (SK-MEL-5): > 100 µM (inactive) | GI50 (SK-OV-3): > 100 µM (inactive) | GI50 (SN12C): > 100 µM (inactive) | GI50 (SNB-19): > 100 µM (inactive) | GI50 (SW-620): > 100 µM (inactive) | GI50 (T47D): > 100 µM (inactive) | GI50 (TK-10): > 100 µM (inactive) | GI50 (U-251): > 100 µM (inactive) | GI50 (UACC-257): > 100 µM (inactive) | GI50 (UACC-62): > 100 µM (inactive) | GI50 (UO-31): > 100 µM (inactive)

O=C(/C=C/c1ccc(O)cc1)c1cc(O)cc(O)c1
GI50 (786-0): 16.6 µM (inactive) | GI50 (A498): 14.9 µM (inactive) | GI50 (A549): 16.5 µM (inactive) | GI50 (ACHN): 6.79 µM (inactive) | GI50 (BT-549): 14.3 µM (inactive) | GI50 (CAKI-1): 14.4 µM (inactive) | GI50 (CCRF-CEM): 3.36 µM (inactive) | GI50 (COLO 205): 18 µM (inactive) | GI50 (DU-145): 12.7 µM (inactive) | GI50 (EKVX): 17.3 µM (inactive) | GI50 (HCT-116): 13.2 µM (inactive) | GI50 (HCT-15): 5.4 µM | GI50 (HL-60): 1.92 µM (inactive) | GI50 (HOP-62): 15.6 µM (inactive) | GI50 (HOP-92): 14.3 µM (inactive) | GI50 (HT-29): 17.5 µM (inactive) | GI50 (Hs-578T): 29.9 µM (inactive) | GI50 (IGROV-1): 13.7 µM (inactive) | GI50 (K562): 2.68 µM (inactive) | GI50 (LOX IMVI): 4.32 µM (inactive) | GI50 (M14): 15.7 µM (inactive) | GI50 (MCF7): 3.54 µM (inactive) | GI50 (MDA-MB-231): 15.5 µM (inactive) | GI50 (MDA-MB-435): 14.2 µM (inactive) | GI50 (MDA-N): 11.9 µM (inactive) | GI50 (MOLT-4): 16.3 µM (inactive) | GI50 (Malme-3M): 20.4 µM (inactive) | GI50 (NCI-H226): 24.1 µM (inactive) | GI50 (NCI-H23): 20.5 µM (inactive) | GI50 (NCI-H522): 3.95 µM (inactive) | GI50 (NCI/ADR-RES): 18.9 µM (inactive) | GI50 (OVCAR-3): 15.3 µM (inactive) | GI50 (OVCAR-4): 20.6 µM (inactive) | GI50 (OVCAR-5): 13.8 µM (inactive) | GI50 (OVCAR-8): 13.4 µM (inactive) | GI50 (PC-3): 11.1 µM (inactive) | GI50 (RPMI-8226): 2.16 µM (inactive) | GI50 (RXF 393): 15.8 µM (inactive) | GI50 (SF-268): 19.8 µM (inactive) | GI50 (SF-295): 15.7 µM (inactive) | GI50 (SF-539): 13.5 µM (inactive) | GI50 (SK-MEL-28): 21.2 µM (inactive) | GI50 (SK-MEL-2): 18.1 µM (inactive) | GI50 (SK-MEL-5): 15.5 µM (inactive) | GI50 (SK-OV-3): 18.2 µM (inactive) | GI50 (SN12C): 15.2 µM (inactive) | GI50 (SNB-19): 16.7 µM (inactive) | GI50 (SNB-75): 17.6 µM (inactive) | GI50 (T47D): 14.6 µM (inactive) | GI50 (TK-10): 24.4 µM (inactive) | GI50 (U-251): 14.5 µM (inactive) | GI50 (UACC-257): 16.3 µM (inactive) | GI50 (UACC-62): 10.4 µM (inactive) | GI50 (UO-31): 10 µM (inactive)

O=C(O)c1ccc(Nc2ccnc3cc(Cl)ccc23)cc1O
GI50 (786-0): > 100 µM (inactive) | GI50 (A498): > 100 µM (inactive) | GI50 (A549): > 100 µM (inactive) | GI50 (ACHN): > 100 µM (inactive) | GI50 (BT-549): > 100 µM (inactive) | GI50 (CAKI-1): > 100 µM (inactive) | GI50 (CCRF-CEM): > 100 µM (inactive) | GI50 (COLO 205): > 100 µM (inactive) | GI50 (DU-145): > 100 µM (inactive) | GI50 (EKVX): > 100 µM (inactive) | GI50 (HCC 2998): 39.6 µM (inactive) | GI50 (HCT-116): > 100 µM (inactive) | GI50 (HCT-15): > 100 µM | GI50 (HL-60): > 100 µM (inactive) | GI50 (HOP-62): 45.7 µM (inactive) | GI50 (HOP-92): > 100 µM (inactive) | GI50 (HT-29): > 100 µM (inactive) | GI50 (Hs-578T): > 100 µM (inactive) | GI50 (IGROV-1): > 100 µM (inactive) | GI50 (K562): > 100 µM (inactive) | GI50 (KM12): > 100 µM (inactive) | GI50 (LOX IMVI): > 100 µM (inactive) | GI50 (M14): > 100 µM (inactive) | GI50 (MCF7): > 100 µM (inactive) | GI50 (MDA-MB-231): > 100 µM (inactive) | GI50 (MDA-MB-435): > 100 µM (inactive) | GI50 (MDA-N): > 100 µM (inactive) | GI50 (MOLT-4): > 100 µM (inactive) | GI50 (Malme-3M): > 100 µM (inactive) | GI50 (NCI-H226): > 100 µM (inactive) | GI50 (NCI-H23): > 100 µM (inactive) | GI50 (NCI-H460): > 100 µM (inactive) | GI50 (NCI-H522): > 100 µM (inactive) | GI50 (NCI/ADR-RES): > 100 µM (inactive) | GI50 (OVCAR-3): > 100 µM (inactive) | GI50 (OVCAR-4): > 100 µM (inactive) | GI50 (OVCAR-5): > 100 µM (inactive) | GI50 (OVCAR-8): > 100 µM (inactive) | GI50 (PC-3): > 100 µM (inactive) | GI50 (RPMI-8226): > 100 µM (inactive) | GI50 (RXF 393): > 100 µM (inactive) | GI50 (SF-268): > 100 µM (inactive) | GI50 (SF-295): > 100 µM (inactive) | GI50 (SF-539): 11.1 µM (inactive) | GI50 (SK-MEL-28): > 100 µM (inactive) | GI50 (SK-MEL-2): > 100 µM (inactive) | GI50 (SK-MEL-5): > 100 µM (inactive) | GI50 (SK-OV-3): > 100 µM (inactive) | GI50 (SN12C): > 100 µM (inactive) | GI50 (SNB-19): > 100 µM (inactive) | GI50 (SNB-75): > 100 µM (inactive) | GI50 (SW-620): > 100 µM (inactive) | GI50 (T47D): > 100 µM (inactive) | GI50 (TK-10): 61.4 µM (inactive) | GI50 (U-251): 95.1 µM (inactive) | GI50 (UACC-257): > 100 µM (inactive) | GI50 (UACC-62): > 100 µM (inactive) | GI50 (UO-31): > 100 µM (inactive)

— ChEMBL document CHEMBL1201862, “PubChem BioAssay data set” (2004)
